Test results published in PMC6928678, “Simplified Head-to-Tail Cyclic Polypeptides as Biomaterial-Associated Antimicrobials with Endotoxin Neutralizing and Anti-Inflammatory Capabilities” (International Journal of Molecular Sciences, 2019).
Values after ≈ are worked out from the molar mass of the structure shown. Where two headings read alike, the source gives them in different places. Where a SMILES comes first, the peptide text is derived from it.

What was measured:
[1] = RP-HPLC used as measure of hydrophobicity; 4.6 mm × 250 mm Venusil MP C18-5 column, 220 nm, linear acetonitrile gradient 15% to 45% in 30 min, 0.1% trifluoroacetic acid, 1 mL/min
Excerpt: In this experiment, cyclic, linear and D-proline antimicrobial peptides were designed based on the IR-rich template sequence (IR)nP(IR)nP (n = 1, 2 and 3). […] The […] molecular weights of the peptides were identified using mass spectrometry. […] The hydrophobicity of the peptides in solution is dependably mirrored by the HPLC retention times.

E. coli 25922 = assay: microbe, parasite or virus in culture; type: cell-based, Escherichia coli
Procedure: (§1) The test strains, including Gram-negative E. coli ATCC25922, E. coli ATCC 1005, S. typhimurium C7731, P. aeruginosa ATCC 27853, S. Typhimurium 14028, Gram-positive S. aureus ATCC29213, S. aureus ATCC 25923, S. epidermidis ATCC 12228 and S. aureus 43300, were obtained from the School of Veterinary Medicine, Northeast Agricultural University (Harbin, China).
(§2) Briefly, the bacteria were incubated overnight at 37 °C with constant shaking at 220 rpm, then were transferred to new MH broth (MHB) medium until they reached the logarithmic phase of growth. The bacteria were then diluted to 10^5 (CFU)/mL in MHB. The peptides were dissolved and diluted in 0.01% acetic acid and 0.2% bovine serum albumin (BSA) at various concentrations (0.5–128 μM) in each well of sterile 96-well plates and incubated for 20 h at 37 °C. […] The test was repeated three times.

E. coli UB 1005 = assay: microbe, parasite or virus in culture; type: cell-based, Escherichia coli
Procedure: as §1, §2

S. aureus 25923 = assay: microbe, parasite or virus in culture; type: cell-based, Staphylococcus aureus
Procedure: as §1, §2

S. aureus 29213 = assay: microbe, parasite or virus in culture; type: cell-based, Staphylococcus aureus
Procedure: as §1, §2

MRSA43300 = assay: microbe, parasite or virus in culture; type: cell-based, Methicillin-resistant Staphylococcus aureus
Procedure: as §1, §2

P. aeruginosa 27853 = assay: microbe, parasite or virus in culture; type: cell-based; details: read-out: MIC
Procedure: as §1, §2

S. epidermidis 12228 = assay: microbe, parasite or virus in culture; type: cell-based
Procedure: as §1, §2

S. typhimurium 14028 = assay: microbe, parasite or virus in culture; type: cell-based
Procedure: as §1, §2

S. typhimurium 7731 = assay: microbe, parasite or virus in culture; type: cell-based
Procedure: as §1, §2

[2] = test system: gram-negative strains tested; assay: Geometric mean of MICs, gram-negative strains; type: cell-based; details: 5 gram-negative strains; >128 apparently counted as 256; read-out: nGM (–), geometric mean of the MICs against gram-negative strains
Procedure: as §2

[3] = test system: gram-positive strains tested; assay: organism not typed; type: cell-based; details: for pGM (+), geometric mean of the MICs against gram-positive strains: 20 h
Procedure: as §2

[4] = test system: all the 9 bacteria tested; assay: Geometric mean of MICs, all 9 bacteria; type: cell-based; details: for tGM, geometric mean of the MICs against all the 9 bacteria: all 9 bacteria tested
Procedure: as §2

[5] = test system: human red blood cells (hRBCs); assay: Hemolysis assay; type: cell-based
Procedure: Figure 2 (A) Hemolytic activity of the engineered peptides against human red blood cells (hRBCs). The hRBCs were incubated with equal amounts of the respective peptides dissolved in PBS for 1 h at 37 °C. (B) Cytotoxicity of the engineered peptides against RAW264.7. […] Data shown are three independent experiments.
The hemolytic activity of the peptides is determined by measuring the amount of hemoglobin released during the lysis of human erythrocytes at different concentrations of AMPs. Briefly, fresh, healthy human red blood cells (hRBCs) were collected and then washed three times with phosphate-buffered saline (PBS) buffer (pH 7.2) and centrifuged at 1000× g for 5 min. Each 50 µL sample of hRBCs was incubated with 50 µL of the respective peptide dissolved in PBS in a well of a 96-well plate for 1 h at 37 °C. After incubation, the samples were centrifuged at 1000× g for 5 min and the supernatants (50 μL) were transferred to a new 96-well microplate. The release of hemoglobin was measured by monitoring the OD at 570 nm (Tecan, Salzburg, Austria). Negative (hRBCs without AMP treatment) and positive (hRBCs treated with 0.1% TritonX-100) controls were used. The concentration of peptide that caused 5% hemolysis was considered the minimal hemolysis concentration (MHC). The test was repeated three times. The percent hemolysis was calculated using the following formula:(2) Percent hemolysis=A−A0/At−A0× 100% A0 and At represent 0% and 100% hemolysis as measured in 10 mM PBS and 0.2% Triton X-100, respectively.

[6] = test system: Gram-positive and Gram-negative bacteria; assay: Antimicrobial assay (MIC), statement over all strains; type: cell-based; details: all strains tested
Procedure: as §2

[7] = test system: bacteria versus human red blood cell; assay: Selectivity index (MHC5/GM); details: 256 μM used for MHC5 when no hemolysis at 128 μM
Procedure: To investigate the cell selectivity of novel antimicrobials, the total selectivity index (TSI) was calculated as the ratio of the minimal hemolysis concentration (MHC) to the geometric mean (GM) of the MIC values (Table 2).

Compound: CC[C@H](C)[C@@H]1NC(=O)[C@@H]2CCCN2C(=O)[C@H](CCCNC(=N)N)NC(=O)[C@H]([C@@H](C)CC)NC(=O)[C@@H]2CCCN2C(=O)[C@H](CCCNC(=N)N)NC1=O [OIR1] (cyclo(IRPIRP))
- RT (retention time) [1]: 10.32 min
- MIC (E. coli 25922; 25922, 20 h): >128 µM
- MIC (E. coli UB 1005; UB 1005, 20 h): >128 µM
- MIC (S. aureus 25923; 25923, 20 h): >128 µM
- MIC (S. aureus 29213; 29213, 20 h): >128 µM
- MIC (MRSA43300; 20 h): >128 µM
- MIC (P. aeruginosa 27853; 27853, 20 h): >128 µM
- MIC (S. epidermidis 12228; 12228, 20 h): >128 µM
- MIC (S. typhimurium 14028; 14028, 20 h): >128 µM
- MIC (S. typhimurium 7731; 7731, 20 h): >128 µM
- MIC [2]: 256 µM (≈ 188 µg/mL)
- pGM (+), geometric mean of the MICs against gram-positive strains [3]: 256 µM
- tGM, geometric mean of the MICs against all the 9 bacteria [4]: 256 µM
- MHC5, minimum hemolytic concentration that induced ≥5% hemolysis ([5]; red cells of human, 1 h): >128 µM
- MIC in the presence of Gram-positive and Gram-negative bacteria [6]: greater than 128 μM

Compound: CC[C@H](C)[C@@H]1NC(=O)[C@H](CCCNC(=N)N)NC(=O)[C@H]([C@@H](C)CC)NC(=O)[C@@H]2CCCN2C(=O)[C@H](CCCNC(=N)N)NC(=O)[C@H]([C@@H](C)CC)NC(=O)[C@H](CCCNC(=N)N)NC(=O)[C@H]([C@@H](C)CC)NC(=O)[C@@H]2CCCN2C(=O)[C@H](CCCNC(=N)N)NC1=O [OIR2] (cyclo(IRIRPIRIRP))
- RT (retention time) [1]: 10.66 min
- MIC (E. coli 25922; 25922, 20 h): 64 µM (≈ 81.4 µg/mL)
- MIC (E. coli UB 1005; UB 1005, 20 h): 64 µM (≈ 81.4 µg/mL)
- MIC (S. aureus 25923; 25923, 20 h): >128 µM
- MIC (S. aureus 29213; 29213, 20 h): >128 µM
- MIC (MRSA43300; 20 h): >128 µM
- MIC (P. aeruginosa 27853; 27853, 20 h): >128 µM
- MIC (S. epidermidis 12228; 12228, 20 h): >128 µM
- MIC (S. typhimurium 14028; 14028, 20 h): >128 µM
- MIC (S. typhimurium 7731; 7731, 20 h): >128 µM
- MIC [2]: 147.0 µM (≈ 187 µg/mL)
- pGM (+), geometric mean of the MICs against gram-positive strains [3]: 256 µM
- tGM, geometric mean of the MICs against all the 9 bacteria [4]: 188.1 µM
- MHC5, minimum hemolytic concentration that induced ≥5% hemolysis ([5]; red cells of human, 1 h): >128 µM

Compound: CC1(C)S[C@@H]2[C@H](NC(=O)Cc3ccccc3)C(=O)N2[C@H]1C(=O)O [PS, Penicillin Sodium, reference compound]
- MIC (E. coli 25922; Escherichia coli, E. coli 25922, MHB, 10^5 CFU/mL, 0.5–128 μM peptide, 20 h 37 °C, OD 492 nm, repeated three times): 128 µM
- MIC (E. coli UB 1005; Escherichia coli, UB1005, E. coli UB 1005, MHB, 10^5 CFU/mL, 20 h 37 °C, repeated three times): 64 µM
- MIC (S. aureus 25923; Staphylococcus aureus, S. aureus 25923, MHB, 10^5 CFU/mL, 20 h 37 °C, repeated three times): 32 µM
- MIC (S. aureus 29213; Staphylococcus aureus, S. aureus 29213, MHB, 10^5 CFU/mL, 20 h 37 °C, repeated three times): 64 µM
- MIC (MRSA43300; Staphylococcus aureus, MRSA43300, MHB, 10^5 CFU/mL, 20 h 37 °C, repeated three times): 32 µM
- MIC (P. aeruginosa 27853; Pseudomonas aeruginosa, P. aeruginosa 27853, MHB, 10^5 CFU/mL, 20 h 37 °C, repeated three times): 128 µM
- MIC (S. epidermidis 12228; Staphylococcus epidermidis, S. epidermidis 12228, MHB, 10^5 CFU/mL, 20 h 37 °C, repeated three times): 0.5 µM
- MIC (S. typhimurium 14028; Salmonella enterica, S. typhimurium 14028, MHB, 10^5 CFU/mL, 20 h 37 °C, repeated three times): 16 µM
- MIC (S. typhimurium 7731; Salmonella enterica, S. typhimurium 7731, MHB, 10^5 CFU/mL, 20 h 37 °C, repeated three times): 0.5 µM
- MIC [2]: 24.3 µM
- MIC ([3]; 4 gram-positive strains, >128 apparently counted as 256, read-out: pGM (+), geometric mean of the MICs against gram-positive strains): 13.5 µM
- GM MIC (range of Gram-negative and Gram-positive geometric means) ([4]; Table 2): 13.5 to 24.3 µM
- MIC ([4]; read-out: tGM, geometric mean of the MICs against all the 9 bacteria): 18.7 µM
- MHC5, minimum hemolytic concentration that induced ≥5% hemolysis ([5]; human red blood cells, PBS, 1 h at 37 °C, OD 570 nm, repeated three times): >128 µM
- nSI (–), selectivity index MHC5/GM (−) [7]: 10.5
- pSI (+), selectivity index MHC5/GM(+) [7]: 19.0
- tSI, total selectivity index MHC5/TGM [7]: 13.7
